Data from the supplement of paper PMC10307832.

How the values were obtained:
Assay in all cases: relative viability (nuclei count vs DMSO), 5 days (fraction); higher = more cells survive
Seliciclib + Decitabine = compound: CC[C@H](CO)Nc1nc(NCc2ccccc2)c2ncn(C(C)C)c2n1 [Seliciclib] + Nc1ncn([C@H]2C[C@H](O)[C@@H](CO)O2)c(=O)n1 [Decitabine] (partner 2 µM)
Summary of the method: (§1)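 Nuclei were stained with Hoechst during a one-step fixation (final 0.05% Triton X-100, 1% formaldehyde, 1 ug/ml Hoechst) carried out 5 days after dosing, then counted on 4× images. The cells, lung cancer lines in 1536-well plates, had been dosed by pin tool the day after seeding with one drug alone or a fixed anchor-drug dose plus five library-drug doses (not always all listed) in √10 steps. Relative viability is the nuclei count in treated wells divided by that in vehicle wells, and each value is the median of duplicate plates.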

Seliciclib + Foretinib = compound: CC[C@H](CO)Nc1nc(NCc2ccccc2)c2ncn(C(C)C)c2n1 [Seliciclib] + COc1cc2c(Oc3ccc(NC(=O)C4(C(=O)Nc5ccc(F)cc5)CC4)cc3F)ccnc2cc1OCCCN1CCOCC1 [Foretinib] (partner 0.25 µM)
Summary of the method: as §1

Seliciclib + Dasatinib = compound: CC[C@H](CO)Nc1nc(NCc2ccccc2)c2ncn(C(C)C)c2n1 [Seliciclib] + Cc1nc(Nc2ncc(C(=O)Nc3c(C)cccc3Cl)s2)cc(N2CCN(CCO)CC2)n1 [Dasatinib] (partner 0.075 µM)
Summary of the method: as §1

Seliciclib + Luminespib = compound: CC[C@H](CO)Nc1nc(NCc2ccccc2)c2ncn(C(C)C)c2n1 [Seliciclib] + CCNC(=O)c1noc(-c2cc(C(C)C)c(O)cc2O)c1-c1ccc(CN2CCOCC2)cc1 [Luminespib] (partner 0.01 µM)
Summary of the method: as §1

Row | Cell Line | relative viability (Seliciclib + Decitabine; first compound 0.08 µM) | relative viability (Seliciclib + Decitabine; first compound 0.253 µM) | relative viability (Seliciclib + Decitabine; first compound 0.8 µM) | relative viability (Seliciclib + Decitabine; first compound 2.53 µM) | relative viability (Seliciclib + Decitabine; first compound 8 µM) | relative viability (Seliciclib + Foretinib; first compound 0.08 µM) | relative viability (Seliciclib + Foretinib; first compound 0.253 µM) | relative viability (Seliciclib + Foretinib; first compound 0.8 µM) | relative viability (Seliciclib + Foretinib; first compound 2.53 µM) | relative viability (Seliciclib + Foretinib; first compound 8 µM) | relative viability (Seliciclib + Dasatinib; first compound 0.08 µM) | relative viability (Seliciclib + Dasatinib; first compound 0.253 µM) | relative viability (Seliciclib + Dasatinib; first compound 0.8 µM) | relative viability (Seliciclib + Dasatinib; first compound 2.53 µM) | relative viability (Seliciclib + Dasatinib; first compound 8 µM) | relative viability (Seliciclib + Luminespib; first compound 0.08 µM) | relative viability (Seliciclib + Luminespib; first compound 0.253 µM) | relative viability (Seliciclib + Luminespib; first compound 0.8 µM) | relative viability (Seliciclib + Luminespib; first compound 2.53 µM) | relative viability (Seliciclib + Luminespib; first compound 8 µM)
1 | LU99A | 0.914 | 0.777 | 0.978 | 0.837 | 0.739 | 0.83 | 0.532 | 0.825 | 0.717 | 0.517 | 0.611 | 0.521 | 0.588 | 0.262 | 0.507 | 0.267 | 0.196 | 0.209 | 0.191 | 0.268
2 | LXF-289 | 0.348 | 0.299 | 0.403 | 0.39 | 0.39 | 0.95 | 1.16 | 0.973 | 0.943 | 0.86 | 0.245 | 0.202 | 0.248 | 0.128 | 0.221 | 0.603 | 0.778 | 0.545 | 0.642 | 0.56
3 | NCI-H23 | 0.278 | 0.293 | 0.316 | 0.288 | 0.268 | 0.977 | 1.09 | 0.96 | 0.88 | 0.592 | 0.855 | 0.785 | 0.756 | 0.296 | 0.643 | 0.202 | 0.206 | 0.209 | 0.211 | 0.242
4 | NCI-H322M | 0.782 | 0.715 | 0.715 | 0.668 | 0.614 | 1 | 1.23 | 0.907 | 0.865 | 0.752 | 0.257 | 0.267 | 0.263 | 0.232 | 0.219 | 0.855 | 0.883 | 0.794 | 0.786 | 0.809
5 | NCI-H358 | 0.204 | 0.216 | 0.221 | 0.193 | 0.176 | 0.684 | 0.597 | 0.752 | 0.665 | 0.457 | 0.196 | 0.153 | 0.148 | 0.129 | 0.137 | 0.31 | 0.385 | 0.21 |  | 0.186
6 | NCI-H522 | 0.699 | 0.545 | 0.659 | 0.645 | 0.611 |  |  |  |  |  | 1.06 | 0.827 | 1.05 | 0.82 | 0.834 | 1.05 | 0.954 | 1.15 | 1.12 | 0.938
7 | NCI-H1299 |  |  |  |  |  | 1.11 | 1.2 | 1.08 | 1.07 | 1.09 |  |  |  |  |  |  |  |  |  | 
8 | NCI-H1563 |  |  |  |  |  | 0.922 | 0.803 | 0.932 | 0.941 | 0.86 | 0.536 | 0.525 | 0.503 | 0.416 | 0.428 | 0.479 | 0.518 | 0.526 | 0.49 | 0.453
9 | NCI-H1648 | 0.486 | 0.615 | 0.605 | 0.45 | 0.473 |  |  |  |  |  |  |  |  |  |  |  |  |  |  | 
10 | NCI-H1703 |  |  |  |  |  | 0.352 | 0.362 | 0.323 | 0.298 | 0.342 |  |  |  |  |  |  |  |  |  | 
11 | NCI-H1792 | 0.45 | 0.506 | 0.608 |  | 0.556 |  |  |  |  |  | 0.754 | 0.788 | 0.766 |  | 0.743 | 0.43 | 0.464 | 0.364 |  | 0.35
12 | NCI-H2228 |  |  |  |  |  | 0.931 | 0.826 | 0.727 | 0.856 | 0.591 | 0.581 | 0.488 | 0.481 | 0.514 | 0.368 | 0.157 | 0.155 | 0.14 | 0.185 | 0.149
